Measured values: the supplement of paper PMC10307832

Columns and labels:
Test in all cases: relative viability (nuclei count vs DMSO), 5 days (fraction); higher = more cells survive
Obatoclax + AZD7762 = compound: COC1=CC(c2cc3ccccc3[nH]2)=N/C1=C\c1[nH]c(C)cc1C [Obatoclax] + NC(=O)Nc1cc(-c2cccc(F)c2)sc1C(=O)N[C@H]1CCCNC1 [AZD7762] (partner 0.2 µM)
Summary of the method: (§1)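 For relative viability, nuclei counts in treated wells were divided by those in vehicle wells. Lung cancer cell lines had been pin-tool dosed in 1536-well plates the day after seeding and cultured for 5 days, then fixed and stained in one step (final 0.05% Triton X-100, 1% formaldehyde, 1 ug/ml Hoechst) and imaged at 4×. Doses were one drug alone or a fixed anchor-drug dose plus five library-drug doses (not always all listed) in √10 steps, and values are duplicate-plate medians.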

[1] = compound: CC1=CC(=NN1)NC2=CC(=NC(=N2)/C=C/C3=CC=CC=C3)N4CCN(CC4)C + CCNC(=O)c1noc(-c2cc(C(C)C)c(O)cc2O)c1-c1ccc(CN2CCOCC2)cc1 [Luminespib] (partner 0.01 µM)
Summary of the method: as §1

Bortezomib + Trametinib = compound: CC(C)C[C@H](NC(=O)[C@H](Cc1ccccc1)NC(=O)c1cnccn1)B(O)O [Bortezomib] + CC(=O)Nc1cccc(-n2c(=O)n(C3CC3)c(=O)c3c(Nc4ccc(I)cc4F)n(C)c(=O)c(C)c32)c1 [Trametinib] (partner 0.02 µM)
Summary of the method: as §1

Bortezomib + Alpelisib = compound: CC(C)C[C@H](NC(=O)[C@H](Cc1ccccc1)NC(=O)c1cnccn1)B(O)O [Bortezomib] + Cc1nc(NC(=O)N2CCC[C@H]2C(N)=O)sc1-c1ccnc(C(C)(C)C(F)(F)F)c1 [Alpelisib] (partner 2 µM)
Summary of the method: as §1

Q: With NCI-H650 as the cell line, how does the relative viability (Obatoclax + AZD7762; first compound 0.01 µM) read?
A: 0.998

Q: What about the relative viability (Obatoclax + AZD7762; first compound 0.03162 µM) of the same cell line?
A: 0.925

Q: What about the relative viability (Obatoclax + AZD7762; first compound 0.3162 µM) of the same cell line?
A: 0.513

Q: And the relative viability (Obatoclax + AZD7762; first compound 1 µM)?
A: 0.324

Q: What about the relative viability ([1]; first compound 0.253 µM) of the same cell line?
A: 0.915

Q: What about the relative viability ([1]; first compound 0.8 µM) of the same cell line?
A: 0.813

Q: And the relative viability ([1]; first compound 2.53 µM)?
A: 0.411

Q: And the relative viability ([1]; first compound 8 µM)?
A: 0.111

Q: What about the relative viability (Bortezomib + Trametinib; first compound 0.0002 µM) of the same cell line?
A: 0.936

Q: What about the relative viability (Bortezomib + Trametinib; first compound 0.000632 µM) of the same cell line?
A: 1.1

Q: What about the relative viability (Bortezomib + Trametinib; first compound 0.002 µM) of the same cell line?
A: 0.857

Q: And the relative viability (Bortezomib + Trametinib; first compound 0.006325 µM)?
A: 0.361

Q: What about the relative viability (Bortezomib + Trametinib; first compound 0.02 µM) of the same cell line?
A: 0.146

Q: What about the relative viability (Bortezomib + Alpelisib; first compound 0.000632 µM) of the same cell line?
A: 1.18

Q: What about the relative viability (Bortezomib + Alpelisib; first compound 0.002 µM) of the same cell line?
A: 0.819

Q: What about the relative viability (Bortezomib + Alpelisib; first compound 0.006325 µM) of the same cell line?
A: 0.355

Q: And the relative viability (Bortezomib + Alpelisib; first compound 0.02 µM)?
A: 0.182
